Laboratory results from publication PMC4942819 (Scientific Reports, 2016).
≈ marks a conversion by molar mass, not a printed value. Where two headings read alike, the source gives them in different places.

Assays:
[1] = tested on: Mycobacterium tuberculosis H37Rv; test: microplate Alamar blue assay (MABA), MIC; format: cell-based; conditions: replicating H37Rv
Mycobacterium avium = test: microdilution plate assay, MIC; format: cell-based
[2] = tested on: Mycobacterium tuberculosis Erdman; test: microplate Alamar blue assay (MABA), MIC; format: cell-based
Vero cells = test: cytotoxicity, MTT assay; format: cell-based; conditions: Chlorocebus sabaeus
Procedure: (§1) The compounds were examined for toxicity (IC50) using MTT assay. Briefly, cells (3 ~ 5 × 10^3 cells/well) were seeded in a 96-well plate. After 24 h incubation, the cells were treated with various concentrations of drugs for 24, 48, 72 h, respectively. Columns one and two in the assay plates contained-media +0.1% DMSO for a negative control ,Then, 20 μl of a 5 mg/mL MTT solution was added to each well, and the plates were incubated for an additional 2~4 h at 37 °C. The medium was subsequently discarded, and DMSO 150 μL was added to dissolve the formazan. Oscillate 15 min, the OD 570 was measured using a Spectra MAX M5 microplate spectrophotometer (Molecular Devices, CA, USA), and the IC50 values were calculated.
(§2) Compound MIC was conducted by ShangHai Chempartner Co., Ltd (Shanghai, China) using the microplate Alamar Blue assay (MABA) against Mycobacterium tuberculosis H37Ra (ATCC 25177). Cytotoxicity of tested compounds was assessed on Vero cells.

A549 cells = test: cytotoxicity, MTT assay; format: cell-based; conditions: Homo sapiens
Procedure: as §1

J774A.1 cells = test: cytotoxicity, MTT assay; format: cell-based; conditions: Mus musculus, J774.A1
Procedure: as §1

MDR-TB clinical isolates = test: microbe, parasite or virus in culture; format: cell-based; conditions: Mycobacterium tuberculosis
XDR-TB clinical isolates = test: microbe, parasite or virus in culture; format: cell-based, Mycobacterium tuberculosis; conditions: Mycobacterium tuberculosis
M. tuberculosis H37Rv = test: MABA checkerboard synergy assay; format: cell-based, Mycobacterium tuberculosis; conditions: for MIC: Mycobacterium tuberculosis, H37RV, checkerboard, drug alone, read-out: MIC against H37Rv, MIC alone
[3] = tested on: M. tuberculosis Erdman in J774A.1 cells; test: macrophage assay, intracellular activity; format: cell-based, Mycobacterium tuberculosis; conditions: for Fold(log) reduction: decrease of log10 CFU between D7 and treatment group, J774A.1, 0.02 μM (Fig. 2 legend: 0.02 μg/mL)
Procedure: As described previously, J774A.1 cells were grown in 75-cm2 cell culture flasks in 10% FBS in Dulbecco’s modified Eagle’s medium (DMEM) until confluency. The cells were detached using a cell scraper, and then centrifuged at 200 g for 5 min at room temperature. The cells were incubated at 37 °C under 5% CO2 for 16 h after distributing into 24-well plates containing coverslips. M. tuberculosis Erdman (ATCC 35801) were diluted to a final concentration of 1 × 10^5 to 3 × 10^5 CFU/mL with DMEM after thawing and sonicating from frozen cultures. And 500 ul of the dilution was dispensed to each well of a new 24-well plate. Followed by, J774A.1 cells on coverslips were infected by incubation with M. tuberculosis Erdman at 37 °C for 2 h. Coverslips were then washed with HBSS and transferred to new 24-well plates. The Cultures were treated in triplicate with compounds at 0.02 μM containing DMEM and incubated at 37 °C under 5% CO2 for 16 h. At D 0 (for untreated controls) and after 7 days of incubation, macrophage cells were lysed by addition of 200 μL of 0.25% sodium dodecyl sulfate. The plates were incubated at 37 °C for 10 min, and 200 μL of DMEM was added. The lysate was sampled using a microtube and sonicated for 15 s. Then 1:1, 1:10, 1:100, and 1:1,000 dilutions were plated on 7H11 agar plates and CFU counts determined after 2 to 3 weeks of incubation at 37 °C.

M. tuberculosis Erdman = test: in vivo acute M.tb Erdman infection mouse model; design: species or system Mycobacterium tuberculosis; conditions: BALB/c mice
[4] = tested on: Mycobacterium tuberculosis H37Ra (ATCC 25177); test: microplate Alamar Blue assay (MABA), MIC, H37Ra; format: cell-based
Procedure: as §2

plasma protein binding = format: in vitro ADME; conditions: mouse, (M), read-out: Plasma protein binding (converted)
Procedure: (§3) The In vitro ADME/T assays were conducted at WuXi AppTec Co. Ltd.(Shanghai). ClogP was calculated with ChemDraw Ultra 14.0. In the study of bi-directional permeability across MDR1-MDCKII cell monolayer, permeability was correlated with the apparent permeability coefficient Papp (cm/s), which was interpreted as follows: Low permeability( Papp ≤ 1.0×10^-6 cm/s), Moderate permeability(1.0×10^-6 < Papp < 5.5×10^-6 cm/s) or High permeability( Papp ≥ 5.5×10^-6 cm/s). ^aaqueous solubility at room temperature.

MDR1 = test: bi-directional permeability across MDR1-MDCKII cell monolayer; format: in vitro ADME; conditions: dog, MDCK-MDR1; MDR1-MDCKII
Procedure: as §3

For O=[N+]([O-])c1cc(C(F)(F)F)cc2c(=S)nc(N3CCC4(CC3)OCCO4)sc12 [SKLB-TB1001, 8-nitro-2-(1,4-dioxa-8-azaspiro[4.5]decan-8-yl)-6-(trifluoromethyl)-4H-benzo[e][1,3]thiazine-4-thione], the MIC [1] was 0.02 µg/mL (≈ 0.0461 µM), the MIC (Mycobacterium avium) was 32 µg/mL (≈ 73.8 µM) and the MIC [2] was under 0.05 µg/mL. For the same molecule, the IC50 (Vero cells; Vero, cytotoxicity, read-out: IC50 Vero) was over 100 µg/mL, the IC50 (Vero cells; cytotoxicity on Vero cells, read-out: IC50) was over 20 µM and the IC50 (A549 cells) was over 100 µg/mL. For the same molecule, the IC50 (J774A.1 cells) was over 32 µg/mL, the MIC (MDR-TB clinical isolates; read-out: MIC, MDR-TB strain M3) was under 0.0156 µg/mL and the MIC (MDR-TB clinical isolates; read-out: MIC, MDR-TB strain M4) was under 0.0156 µg/mL. For the same molecule, the MIC (MDR-TB clinical isolates; read-out: MIC, MDR-TB strain M8) was under 0.0156 µg/mL, the MIC (MDR-TB clinical isolates; read-out: MIC, MDR-TB strain M18) was under 0.0156 µg/mL and the MIC (XDR-TB clinical isolates; read-out: MIC, XDR-TB strain X15) was under 0.0156 µg/mL. It also gave an MIC (XDR-TB clinical isolates; read-out: MIC, XDR-TB strain X17) of under 0.0156 µg/mL, an MIC (M. tuberculosis H37Rv; 336 h) of 0.02 µg/mL and an MIC (M. tuberculosis H37Rv) of 0.02 µg/mL. The FICI (M. tuberculosis H37Rv; combination with linezolid) was 1.34, the “MIC against H37Rv, MIC in combo.” value (M. tuberculosis H37Rv; in combination with INH) was 0.007 µg/mL and the “MIC against H37Rv, MIC in combo.” value (M. tuberculosis H37Rv; in combination with LZD) was 0.013 µg/mL. For the same molecule, the “MIC against H37Rv, MIC in combo.” value (M. tuberculosis H37Rv; in combination with MOX) was 0.008 µg/mL, the FICI (M. tuberculosis H37Rv; in combination with RMP) was 0.22 and the “MIC against H37Rv, MIC in combo.” value (M. tuberculosis H37Rv; in combination with RMP) was 0.001 µg/mL. The “decrease of MIC” value (M. tuberculosis H37Rv; in the presence of RMP) was 5 fold, the FICI (M. tuberculosis H37Rv; in the presence of isoniazid) was 0.68 and the FICI (M. tuberculosis H37Rv; in the presence of moxifloxacin) was 0.97. For the same molecule, the “Log10 CFU, intracellular Mtb Erdman” value ([3]; J774A.1 macrophages, 0.02 μM (Fig. 2 legend: 0.02 μg/mL), 7 days) was 4.77, the “Fold(log) reduction” value [3] was 2.08 log and the “Fold(log) reduction” value ([3]; listed as SKLB-1001) was 2.1 log. The “reduction of M.tb CFU in lungs compared to the vehicle group” value (M. tuberculosis Erdman; 150 mg/kg daily for 4 weeks) was 3.4 logs, the “reduction of M.tb CFU in lungs compared to treatment initiation” value (M. tuberculosis Erdman; 150 mg/kg daily for 4 weeks) was 0.87 logs and the “Log10 CFU (SD), bacterial burden in mouse lungs” value (M. tuberculosis Erdman; Day-36, 150 mg/kg oral daily from day 10) was 2.84 (2.93). It also gave an MIC [4] of under 0.1 µM, a fraction unbound (plasma protein binding) of 0.038 and a Papp A→B (MDR1) of 6.96 ×10⁻⁶ cm/s. The Papp B→A (MDR1) was 7.27 ×10⁻⁶ cm/s and the efflux ratio (MDR1) was 1.04.
